Experimental data: PMC10762035, “Molecular basis of human trace amine-associated receptor 1 activation” (Nature Communications, 2024)
Where a chain is given by its changes, count along the chain named. Values joined by “and” are separate entries in the source; they are usually repeats but may differ in a detail not shown here. Equal values may be shown once. Read-outs that look alike come from different tables or passages of the source.

Columns and labels:
Type in all cases: cell-based
[1] = molecular target: T1, hTA1 W264F (Homo sapiens, UniProt Q96RJ0, W264F); test: GloSensor cAMP accumulation assay, W264F mutant;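 also: cells transiently transfected with receptor plus GloSensor, luminescence read 30 min after agonist addition at room temperature, concentration-response curves fitted by log(agonist) vs response regression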
T1 construct: expressed in transfected cells; host or cells: HEK293T
T1 sequence (Q96RJ0 1-339 W264F): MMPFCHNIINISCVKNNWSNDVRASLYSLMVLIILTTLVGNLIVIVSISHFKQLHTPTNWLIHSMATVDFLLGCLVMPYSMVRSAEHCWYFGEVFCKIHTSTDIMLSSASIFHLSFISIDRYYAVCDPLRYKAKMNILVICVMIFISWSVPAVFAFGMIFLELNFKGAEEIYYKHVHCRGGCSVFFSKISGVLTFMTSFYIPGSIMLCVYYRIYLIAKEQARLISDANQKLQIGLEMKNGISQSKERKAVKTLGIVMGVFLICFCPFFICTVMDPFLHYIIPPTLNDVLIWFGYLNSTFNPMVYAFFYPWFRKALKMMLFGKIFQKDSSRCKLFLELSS

[2] = molecular target: T2, hTA1 C88S (Homo sapiens, UniProt Q96RJ0, C88S); test: GloSensor cAMP accumulation assay, C88S mutant; settings: C88S
T2 construct: expressed in transfected cells; host or cells: HEK293T
T2 sequence (Q96RJ0 1-339 C88S): T1 sequence (Q96RJ0 1-339 W264F) with C88S, F264W

[3] = molecular target: T3, β2AR-Nterm-hTA1-F112^3.41W (CryoEM Construct) (Homo sapiens, UniProt Q96RJ0, F112W); test: GloSensor cAMP accumulation assay, cryoEM construct;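 also: cells transiently co-transfected with the receptor construct and GloSensor cAMP biosensor, luminescence read after 30 min compound exposure at room temperature in the dark as cAMP accumulation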;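 as to Normalized Luminescence Counts (N=2): normalized to the maximum response of β-PEA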
T3 construct: FLAG (N); 10xHis (N); TEV protease site (N); expressed in transfected cells; host or cells: HEK293T
T3 sequence (Q96RJ0 with tags, fused parts or gaps F112W): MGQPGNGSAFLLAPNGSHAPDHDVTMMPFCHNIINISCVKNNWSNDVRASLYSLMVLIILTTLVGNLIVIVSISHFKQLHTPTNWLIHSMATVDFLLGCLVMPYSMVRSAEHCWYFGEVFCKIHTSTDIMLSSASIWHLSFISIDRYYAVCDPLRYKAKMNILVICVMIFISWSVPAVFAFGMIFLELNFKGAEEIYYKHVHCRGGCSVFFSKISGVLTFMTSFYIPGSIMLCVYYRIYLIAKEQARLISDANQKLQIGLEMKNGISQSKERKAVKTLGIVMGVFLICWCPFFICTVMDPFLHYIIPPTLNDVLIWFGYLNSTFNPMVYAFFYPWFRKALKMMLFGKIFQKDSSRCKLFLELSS

[4] = molecular target: T4, hTA1 C178S (Homo sapiens, UniProt Q96RJ0, C178S); test: GloSensor cAMP accumulation assay, C178S mutant; settings: for C178S - Normalized Luminescence Counts (N=2): log[Compound], single replicates
T4 construct: expressed in transfected cells; host or cells: HEK293T
T4 sequence (Q96RJ0 1-339 C178S): T1 sequence (Q96RJ0 1-339 W264F) with C178S, F264W

[5] = molecular target: T5, hTA1 V184P (Homo sapiens, UniProt Q96RJ0, V184P); test: GloSensor cAMP accumulation assay, V184P mutant; settings: for cAMP accumulation response, single replicate values (source data, Supplementary Figure 5): hTA1 V184P (N=2), log[Compound]
T5 construct: expressed in transfected cells; host or cells: HEK293T
T5 sequence (Q96RJ0 1-339 V184P): T1 sequence (Q96RJ0 1-339 W264F) with V184P, F264W

[6] = Cryo EM Construct minus WT average
[7] = hTA1 V184P mutant minus WT average

CCc1[nH]nc(C(=O)Nc2ccc([C@H]3CNCCO3)cc2)c1C [ralmitaront]
ΔEmax values (each mutant value - WT average) ([1]; W246F mutant (so in the source) minus WT average): -7.264
Emax values, Mean ([1]; W246F mutant (so in the source), β-PEA = 100, each line an independent experiment, 3 replicates): 47.4013
Emax ([1]; W246F mutant (so in the source), β-PEA = 100, each line an independent experiment, 3 replicates, read-out: Emax values (Mean)): 32.8%
Emax ([1]; W264F, n=2, read-out: Span ± SEM (Emax normalized to β-PEA)): 40.1 ± 7.28%
Emax values ([2]; Mean of fit per experiment): 92.8994 and 62.9388
Emax ([2]; n=2, read-out: Span ± SEM (Emax normalized to β-PEA)): 77.9 ± 15%
Emax ([2]; relative to β-PEA, read-out: Emax): 77.9%
ΔEmax values (each mutant value - WT average), Mean [3, 6]: 72.2357 and 63.0743
ΔpEC50 values (each mutant value - WT average), Mean [3, 6]: -1.146 and -1.03
Emax values, Mean ([3]; Cryo EM Construct, mean of each independent experiment (3 replicates)): -1.146 and -1.03
Normalized Luminescence Counts (N=2) ([3]; CryoEM Construct, log[Compound], M = -5, single replicates): 105.279 and 102.248 and 77.3142 and 99.3117
Emax ([3]; CryoEM Construct, n=2, read-out: Span ± SEM (Emax normalized to β-PEA)): 107 ± 3.32%
ΔpEC50 values (each mutant value - WT average), Mean ([4]; C178S, each row one experiment (N=2), 3 replicates): -0.4487 and -0.0445
Emax ([4]; C178S, n=2, read-out: Span ± SEM (Emax normalized to β-PEA)): 69.5 ± 2.9%
Emax ([4]; C178S, relative to β-PEA, read-out: Emax): 69.5%
Emax values, Mean ([4]; C178S, β-PEA = 100, each row one experiment (N=2), 3 replicates): 72.4383
Emax ([4]; C178S, β-PEA = 100, each row one experiment (N=2), 3 replicates, read-out: Emax values, Mean): 66.6%
C178S - Normalized Luminescence Counts (N=2) ([4]; M = -5): 73.8012 and 62.4927 and 60.9506 and 66.8043 and 64.022 and 61.0303
C178S - Normalized Luminescence Counts (N=2) ([4]; M = -5.522): 57.6328 and 63.2871 and 59.3151 and 75.9888 and 75.2109 and 62.2569
C178S - Normalized Luminescence Counts (N=2) ([4]; M = -6): 43.2869 and 48.3804 and 55.2496 and 74.2835 and 69.4968
C178S - Normalized Luminescence Counts (N=2) ([4]; M = -6.522): 30.9035 and 28.8942 and 35.67 and 44.4265 and 49.1234 and 56.9916
C178S - Normalized Luminescence Counts (N=2) ([4]; M = -7): 14.8753 and 16.3239 and 23.7072 and 27.2542 and 34.494 and 27.6431
C178S - Normalized Luminescence Counts (N=2) ([4]; M = -7.522): 4.642 and 7.866 and 7.3986 and 13.4924 and 12.7145 and 13.5821
C178S - Normalized Luminescence Counts (N=2) ([4]; M = -8): 1.277 and 2.445 and 2.959 and 5.594 and 6.073 and 4.936
C178S - Normalized Luminescence Counts (N=2) ([4]; M = -8.522): -0.2183 and 0.7163 and 2.0247 and 0.7179 and 1.526 and 2.842
C178S - Normalized Luminescence Counts (N=2) ([4]; M = -9): -0.3585 and 0.1555 and -0.03139 and 0.4785 and 0.3289 and 2.214
C178S - Normalized Luminescence Counts (N=2) ([4]; M = -9.522): -1.433 and 1.137 and -0.6389 and -0.0001415 and -0.6284 and -0.3292
C178S - Normalized Luminescence Counts (N=2) ([4]; M = -10): -1.1529 and -1.2 and -1.106 and 0.05969 and -0.9575 and -1.5259
C178S - Normalized Luminescence Counts (N=2) ([4]; M = -10.522): -0.5454 and -0.2183 and -0.8258 and -2.334 and -1.855 and -2.154
C178S - Normalized Luminescence Counts (N=2) ([4]; M = -11): -0.3585 and -0.2183 and -0.4987 and 0.6281 and 0.3589 and 0.4785
C178S - Normalized Luminescence Counts (N=2) ([4]; M = -11.522): -0.3585 and -0.07812 and 0.1555 and 0.5384 and -0.08989 and -0.419
C178S - Normalized Luminescence Counts (N=2) ([4]; M = -12): -0.966 (2×) and -0.3585 and -0.8079 and -2.005 and -0.9874
C178S - Normalized Luminescence Counts (N=2) ([4]; M = -12.522): 1.09 and -0.2183 and -0.8725 and 0.3888 and -1.137 and -2.364
reduction in potency vs wild type ([5]; V184P): 2.5 fold
Emax ([5]; V184P, n=2, read-out: Span ± SEM (Emax normalized to β-PEA)): 48.73 ± 0.14%
cAMP accumulation response, single replicate values (source data, Supplementary Figure 5) ([5]; M = -5): 56.1002 and 44.9467 and 51.6388 and 50.9599 and 51.6929 and 37.8383
cAMP accumulation response, single replicate values (source data, Supplementary Figure 5) ([5]; M = -5.522): 38.6425 and 44.6557 and 34.0841 and 47.4046 and 55.1382 and 34.8694
cAMP accumulation response, single replicate values (source data, Supplementary Figure 5) ([5]; M = -6): 32.8233 and 40.4853 and 30.6896 and 36.9953 and 42.3832 and 37.3618
cAMP accumulation response, single replicate values (source data, Supplementary Figure 5) ([5]; M = -6.522): 24.4824 and 25.4523 and 22.4457 and 22.8108 and 28.9684 and 21.7112
cAMP accumulation response, single replicate values (source data, Supplementary Figure 5) ([5]; M = -7): 14.7837 and 10.7102 and 14.2987 and 13.3178 and 19.622 and 12.4015
cAMP accumulation response, single replicate values (source data, Supplementary Figure 5) ([5]; M = -7.522): 3.727 and 4.406 and 3.242 and 4.485 and 6.5 and 5.731
cAMP accumulation response, single replicate values (source data, Supplementary Figure 5) ([5]; M = -8): 0.5265 and 1.302 and 1.5934 and 2.432 and 2.322 and 1.296
cAMP accumulation response, single replicate values (source data, Supplementary Figure 5) ([5]; M = -8.522): 0.2356 and -0.3463 and -0.05538 and 1.699 and 1.076 and 0.2329
cAMP accumulation response, single replicate values (source data, Supplementary Figure 5) ([5]; M = -9): 0.3326 and -0.2494 and -1.025 and -0.1703 and -0.2803 and -0.5368
cAMP accumulation response, single replicate values (source data, Supplementary Figure 5) ([5]; M = -9.522): -0.8313 and -0.9283 and -1.316 and -0.5002 and -0.3902 and -0.3169
cAMP accumulation response, single replicate values (source data, Supplementary Figure 5) ([5]; M = -10): -1.122 (2×) and -0.3463 and -0.94 and -0.3902 and -1.3432
cAMP accumulation response, single replicate values (source data, Supplementary Figure 5) ([5]; M = -10.522): -0.9283 and -1.025 and -1.219 and -0.9034 and -1.123 and -1.673
cAMP accumulation response, single replicate values (source data, Supplementary Figure 5) ([5]; M = -11): -0.9283 and -1.607 (2×) and -0.3902 (2×) and -0.1703
cAMP accumulation response, single replicate values (source data, Supplementary Figure 5) ([5]; M = -11.522): -1.607 (2×) and -1.898 and 0.746 and -0.02371 and -0.5002
cAMP accumulation response, single replicate values (source data, Supplementary Figure 5) ([5]; M = -12): -1.607 and -1.219 and -1.51 and -0.6835 and 0.4894 and -0.5735
cAMP accumulation response, single replicate values (source data, Supplementary Figure 5) ([5]; M = -12.522): -0.7343 and -1.4132 and -1.025 and -0.6835 and -0.7568 and -1.087
ΔEmax values (each mutant value - WT average), Mean [5, 7]: 8.48 and 8.751
ΔpEC50 values (each mutant value - WT average), Mean [5, 7]: -0.4311 and -0.3552
Emax values, Mean ([5]; hTA1 V184P mutant, β-PEA set to 100, each grid row a separate experiment, 3 replicates): 48.8655
Emax ([5]; hTA1 V184P mutant, β-PEA set to 100, each grid row a separate experiment, 3 replicates, read-out: Emax values (Mean)): 48.6%
